Data reported in US10648917B2, “Luminescent compositions and applications thereof” (THE PENN STATE RESEARCH FOUNDATION, priority 2015, dated 2020).

Experiments:
[1] = pH dependence of fluorescence / pH sensing; format: physicochemical
Method: (§1) Absorbance Spectra were recorded on Tecan Infinite M200 Pro UV-vis spectroscopy, and fluorescence spectra were recorded on Horiba FluoroMax-4 fluorospectroscopy at concentrations below 0.1 O.D. unless otherwise indicated. Quantum Yields were measured on the Quantum φ Integrating Sphere accessory to the FluoroMax-4, while lifetime measurements were determined through the Time-Correlation Single Photon Counting (TCSPC) accessory to the FluroMax-4. TCSPC was utilized in conjunction with NanoLED pulsed diode light source with peak excitation wavelength at 352 nm and at 10,000 counts peak preset. Emission was collected at the fluorescence λmax, unless otherwise indicated. For all pH-dependence experiments, sample pH was adjusted with sulfuric acid or sodium hydroxide. For all chloride-dependent quenching experiments, magnesium chloride hexahydrate (Sigma Aldrich) was used.
pH Dependence of CA-Cys Fluorescence. Of all solvent and environmental factors that affect fluorescence, CA-Cys appeared to display the greatest sensitivity to changes in pH. […] From a detailed analysis of FIG. 13, four correlations were observed. Fluorescence properties of CA-Cys were invariable from high basicity to a pH of 4.84, from which the excitation λmax began to red-shift from 350 nm, emission λmax began to red-shift from 418 nm, maximum fluorescence intensity began to decrease, and quantum yield began to decrease. As acidity was increased, all four trends continued until pH 2.44, from which the excitation λmax plateaued at 365 nm, emission plateaued at 445 nm, and fluorescence intensity and quantum yield both experienced a short local plateau. Similarly, Stokes shift increased from 67 nm to 80 nm in high acidity. Lastly, absorbance λmax shifted similarly to that of the maximum excitation, while absorbance intensities remained relatively constant. […] All of these patterns were reminiscent of a pH-dependent equilibrium, thus the predominant mechanism of intensity quenching and bathochromic shifts was hypothesized to be attributed to changes in protolytic equilibria. The noticeably linear quenching of intensities past pH 1.63 is discussed with respect to lifetime analysis herein below.
There is a predictable, linear increase in intensity from pH 3 to 4.5. Furthermore, emission collected at a fixed 445 nm is shown in FIG. 15 to be an isobestic point where intensities are independent of pH (up to pH 1), which should greatly improve the functionality of CA-Cys as a pH sensor. In other words, utilizing 445 nm as a dual-wavelength reference point allows for background subtraction and normalization with respect to absorbance or concentration. […] Furthermore, I418 nm/I445 nm increases linearly in the region of pH 3 to 4.5 for accurate determination of pH within this region, plotted and fitted with an R^2 value of 0.982. To sum up, I418 nm/I445 nm values near 1.6 indicate pH above 4.5, values below 0.7 indicate highly acidic environments below pH 3, while any intermediate I418 nm/I445 nm values can determine the exact pH with good accuracy. It is important to note that CA-Cys fluorescence is in accordance with Kasha's rule, i.e. fluorescence occurs from the lowest excited state, S1→S0, thus the emission λmax is independent of the excitation wavelength, and a fluorescence excitation scan at a fixed emission of 418 nm or 445 nm would provide the maximum fluorescence intensity for that emission wavelength. Also of importance is the reliable range of the isobestic point, which is broken at high acidities (noticeably below pH 1) due to dynamic quenching effects.

[2] = Time-resolved fluorescence lifetime (TCSPC); format: physicochemical
Method: Fluorescence lifetimes were determined by using the Time-Correlation Single Photon Counting (TCSPC) accessory to the FluroMax-4 (Horiba, NJ). NanoLED pulse light sources at wavelengths of 352 nm and 390 nm were used for excitation. For each decay curve, 10,000 photons were collected. Fluorescence lifetime decays were fitted with an exponential series according to equation 1 below:
[formula] where F(t) is the lifetime decay function with respect to time t, Ti is the lifetime value of the emitting species, A is the background offset, and Bi is the pre-exponential function of the emitting species. The method of least squares was used to quantify χ^2 based on the decay data and the fitting function, where χ^2 values smaller than 1.2 indicates a good fit; and values above 1.2 indicate need for multiple exponential fitting in equation 1. If the lifetime decay is dominated by one emitting species, the equation can be simplified to include only the first two terms. One exponential fitting is good for TPA based fluorophores. However, for DPR based fluorophores, only three exponential fitting gives a χ^2 smaller than 1.2. E. Computational Modeling
as §1
Fluorescence lifetime decays were fitted with an exponential series according to equation 5 below:
[formula] Where F(t) is the lifetime decay function with respect to time t, Ti is the lifetime value of the emitting species, A is the background offset, and Bi is the pre-exponential function of the emitting species. If the lifetime decay is dominated by one emitting species, the equation can be simplified to include only the first two terms. Bi measures the relative amplitude of the specified fluorophore, where the percent contribution of the fluorophore to the lifetime decay, f, is derived from equation 6:
[formula] The method of least squares was used to quantify χ^2 based on the decay data and the fitting function, where χ^2 values under 1.2 indicates a good fit, and values above 1.2 indicate need for additional terms in equation 5. Typically, an additional exponential term was necessary to improve the χ^2 value and account for the presence of a negligible 6 ns species, deemed to stem from by-products of CFD synthesis, impurities, or CFD dimers. Since the contribution from this species was minor, often less than 5%, it was not included in lifetime analysis.

| SMILES | emission transition (pH) [1] | isobestic absorption point (pH) [1] | I418 nm/I445 nm ratio ([1]; acidic range) | I418 nm/I445 nm ratio ([1]; basic range) | Stokes shift ([1]; before increase (basic)) [nm] | emission λmax plateau ([1]; from pH 2.44) [nm] | excitation λmax plateau ([1]; from pH 2.44) [nm] | quenching of emission intensity at fixed 418 nm ([1]; from pH 4.5-11 to pH 1-3) | emission λmax ([1]; high basicity to pH 4.84) [nm] | excitation λmax ([1]; high basicity to pH 4.84) [nm] | Stokes shift ([1]; in high acidity) [nm] | quenching of overall fluorescence ([1]; upon protonation of first carboxyl group) [fold] | τ ([2]; Anion protolytic state) [ns] | τ ([2]; Dianion protolytic state (physiological pH)) [ns] | τ ([2]; Neutral protolytic state) | fluorescence lifetime τ ([2]; one-exponential decay, pulsed excitation at 352 nm, maximum emission wavelength) [ns] | pH of sharp colorimetric transition [1] | fluorescence lifetime τ1 ([2]; three exponential model) [ns] | fluorescence lifetime τ2 ([2]; three exponential model) [ns] | fluorescence lifetime τ3 ([2]; three exponential model) [ns] |
| --- | --- | --- | --- | --- | --- | --- | --- | --- | --- | --- | --- | --- | --- | --- | --- | --- | --- | --- | --- | --- |
| O=C(O)c1cc2n(c(=O)c1)C(C(=O)O)CS2 (centres unmarked) [CA-Cys] | 3.27 | 3.35 | 0.7 | 1.6 | 67 | 445 | 365 | roughly 2.25 fold | 418 | 350 | 80 | 1.37 | 11.19 | 10.06 | Quenched | 10.46 |  |  |  |  |
| CC(C(=O)O)N1C(=O)C=C(C(=O)O)CC1=O (centres unmarked) [CA-Ala] |  |  |  |  |  |  |  |  |  |  |  |  |  |  |  |  | 9.75 | 0.95 | 4.44 | 10.35 |
